The record followed here is patent publication US6740759B1, “Method for producing 2-alkyl-4-isothiazoline-3-one” (Chemicrea, Inc., priority 1999, dated 2004).

Structures are written as SMILES.

The data set is described as follows: mutagenicity (Ames) testing of the crystals obtained. It is filed as cell-based. The arrangement: key: A “+” signifies a positive adverse effect on the body; a “−” denotes no adverse effect. Conditions: crystals obtained in the example. On the procedure: The numbers in the table enclosed by parentheses in the column of solvents used in the reaction denote the molar fraction of the solubility of hydrogen chloride at normal temperature/pressure. The purity of the crystals obtained in Working Examples 1 to 7 and in the Comparative Example was analyzed by high-performance liquid chromatography and submitted to mutagenicity (Ames) testing. A “+” signifies a positive adverse effect on the body while a “−” denotes no adverse effect.
Take `O=c1ccsn1Cc1ccccc1` [Working Example 7, 2-benzyl-4-isothiazoline-3-one]: the Ames test entry is listed as “−”.

As to `CCCCCCCCn1sccc1=O` [Working Example 4, 2-n-octyl-4-isothiazoline-3-one], the Ames test entry is on record as “−”.

With `Cn1sccc1=O` [Working Example 3, 2-methyl-4-isothiazoline-3-one], the Ames test entry is “−”.
